US20210128667A1, “IMMUNOPROTEASOME INHIBITORS AND IMMUNOSUPPRESSIVE AGENT IN THE TREATMENT OF AUTOIMMUNE DISORDERS” (KEZAR LIFE SCIENCES, priority 2017, published 2021)

Experiments:
[1] = test system: patients with refractory SLE and LN; settings: patients who had failed standard immunosuppressive therapies; cited from earlier work
immune effector cells [2] = settings: cited from earlier work
[3] = test system: animal models of autoimmune disorders; settings: animal models including RA and SLE; cited from earlier work
[4] = in vivo; cited from earlier work
immunoproteasome [5] = molecular target: immunoproteasome (Mus musculus, UniProt O35955+P28063+P28076); settings: upon administration to mice; cited from earlier work
mouse models of RA = settings: doses one tenth of the maximum tolerated dose (MTD); cited from earlier work
immune effector cells [6] = settings: cited from earlier work; remark: listed apart in the source
[7] = test system: mouse models of multiple sclerosis and SLE; settings: in vivo; cited from earlier work
[8] = test system: NZB/WF1 mice with established nephritis; assay: NZB/W F1 mouse model of established nephritis: proteinuria (urine dipsticks) and survival; type: in vivo; settings: 2.5 mg/kg KZR-616 SC QW, 30 mg/kg QDx7 PO MMF, in comparison with the untreated mice
Protocol: NZB/W Fl mice were purchased from Jackson Laboratories. All mice were housed in the animal facility at Kezar Life Sciences. All experiment protocols were reviewed and approved by the Kezar Committee on Animal Resources. NZB/WF1 mice with established nephritis (24 weeks of age with duratble proteinuria ≥1+ proteinuria) were treated with vehicle alone, 2.5 mg/kg KZR-616 SC QW, 30 mg/kg QDx7 PO MMF or the combination of 2.5 mg/kg KZR-616 SC QW KZR-616 and 30 mg/kg QDx7 PO MMF. Proteinuria was monitored weekly once with urine dipsticks (Uristix by Bayer) and survival was observed.
To investigate immunoproteasome inhibition combined with the standard of care treatment MMF, NZB/w mice were administered vehicle alone, 2.5 mg/kg KZR-616 SC QW, 30 mg/kg QDx7 PO MMF or the combination of KZR-616 and MMF.

immunoproteasome [9] = assay: Immunoproteasome inhibition in blood and tissues after administration to monkeys; type: in vivo; settings: administered to monkeys
immune cell types = assay: In vitro immune cell function (cytokine production, T-cell subsets, plasma cells, autoantibodies); type: cell-based
immunoproteasome [10] = molecular target: T1, immunoproteasome (Rattus norvegicus, UniProt P28064+P28077+Q4KM35); assay: Immunoproteasome inhibition in blood and tissues after administration to rats; type: in vivo; settings: administered to rats
T1 construct: from tissue; host or cells: blood and tissues of dosed rats

non-proteasomal targets = assay: Broad diversity panel of biochemical assays (110 receptor/ligand and enzyme assays)
[11] = molecular target: LMP7 subunit of the immunoproteasome (Homo sapiens, UniProt P28062); assay: In vitro inhibition of immunoproteasome subunits; type: biochemical
immunoproteasome [12] = molecular target: T2, immunoproteasome (Homo sapiens, UniProt P28062+P28065+P40306); assay: Immunoproteasome inhibition in human cells in vitro; type: cell-based
T2 construct: endogenous in cells

CC(C)C[C@H](NC(=O)[C@H](Cc1ccccc1)NC(=O)c1cnccn1)B(O)O [bortezomib]
clinical activity [1]: shown to have clinical activity | cytokine release (immune effector cells [2]): blocks cytokine release from immune effector cells | anti-inflammatory activity [3]: demonstrated anti-inflammatory activity | peripheral neuropathy [4]: dose limiting side effect of peripheral neuropathy

COc1ccc(C[C@H](NC(=O)[C@H](C)NC(=O)CN2CCOCC2)C(=O)N[C@@H](Cc2ccccc2)C(=O)[C@]2(C)CO2)cc1 [ONX 0914]
inhibition of the immunoproteasome (immunoproteasome [5]): selectively inhibits the immunoproteasome | joint inflammation, cytokine production and joint damage (mouse models of RA): prevent joint-specific inflammation, reduce cytokine production, and ameliorate joint damage | autoantibody formation (immune effector cells [6]): blocked autoantibody formation | number and activity of inflammatory T-cell subsets such as Th1 and Th17 (immune effector cells [6]): reduced the number and activity of inflammatory T-cell subsets | number of regulatory T-cells (Treg) (immune effector cells [6]): increased the number of regulatory T-cells | cytokine production (immune effector cells [6]; immune effector cells): inhibited cytokine production in immune effector cells | activity and tolerability compared with bortezomib [7]: equivalent activity but better tolerability than bortezomib | therapeutic activity [7]: therapeutically active

COc1c(C)c2c(c(O)c1C/C=C(\C)CCC(=O)OCCN1CCOCC1)C(=O)OC2 [MMF, mycophenolate mofetil]
level of proteinuria [8]: significantly reduced the level of proteinuria | survival [8]: increased survival

CC(C)C[C@H](NC(=O)[C@H](CCc1ccccc1)NC(=O)CN1CCOCC1)C(=O)N[C@@H](Cc1ccccc1)C(=O)N[C@@H](CC(C)C)C(=O)[C@@]1(C)CO1 [carfilzomib]
peripheral neuropathy [4]: Peripheral neuropathy is not induced

COc1ccc([C@@H](O)[C@H](NC(=O)[C@H](C)NC(=O)CN2CCOCC2)C(=O)N[C@@H](CC2=CCCC2)C(=O)[C@@]2(C)CO2)cc1 [KZR-616]
level of proteinuria [8]: significantly reduced the level of proteinuria | survival [8]: increased survival | inhibition of the immunoproteasome in blood and tissues (immunoproteasome [9]): potent and selective inhibition in blood and tissues | activity of inflammatory T-helper cell subsets (immune cell types): reduces the activity of inflammatory T-helper cell subsets | number of regulatory T-cells (immune cell types): increases the number of regulatory T-cells | plasma cell formation and autoantibody production (immune cell types): blocks plasma cell formation and autoantibody production | cytokine production (immune cell types; multiple immune cell types): blocks cytokine production across multiple immune cell types | inhibition of the immunoproteasome in blood and tissues (immunoproteasome [10]): potent and selective inhibition in blood and tissues | inhibition of non-proteasomal targets (non-proteasomal targets): did not inhibit any non-proteasomal targets | mechanism of inhibition of immunoproteasome subunits [11]: irreversible mechanism | inhibition of the LMP7 subunit ([11]; in vitro, selectivity relative to(35)): potent and selective inhibition | inhibition of the immunoproteasome (immunoproteasome [12]): potent and selective inhibition of the immunoproteasome
